Assays:
[1] = system: human colon cancer cell strain Colo205; assay: In vitro SRB tumor cell growth inhibition (GI50); assay type: cell-based; settings: Colo 205 cells, 48 h
Method: (§1) Human colon cancer cell strains (Colo205 and HCT-116), human breast cancer cell strains (MCF-7 and MDA-MB435), human lung cancer cell strains (A549, 95D and NCI460), human ovarian cancer cell strains (OVCAR-5, OVCAR-8, HO8910 and SKOV-3), human leukemia (HL-60 and K562), human prostate cancer (DU145 and BXPC-3), human uterine cancer (Hela), human pancreatic cancer (PANC-1), human hepatoma (HepG 2) were all obtained from ATCC. Colo205, HL-60, K562 cells were cultured in RPMI 1640 containing 2 mM/L glutamine, 10% FBS, 1.0 mM sodium pyruvate. HCT-116, MCF-7, A549, 95D, HO8910, NCI460, OVCAR-5, OVCAR-8, DU145, BXPC-3, Hela, PANC-1, HepG2 cells were cultured in DMEM containing 2 mM/L glutamine, 10% FBS. MDA-MB435 cells were cultured in L-15 containing 2 mM/L glutamine, 10% FBS. SKOV-3 cells were cultured in McCoy's containing 2 mM/L glutamine, 10% FBS. Colo205, HL-60 and K562 cells were seeded in 96-well plates, 150 μL/well and 8000 cells/well, and the 96-well plates were pre-incubated in an incubator at 37° C. with 5% CO2, 100% relative humidity for 24 hours. HCT-116, MCF-7, NCI460, OVCAR-5, OVCAR-8, Hela, HepG 2 and MDA-MB435 cells were seeded in 96-well plates, 5000 cells/well; A549, 95D, HO8910, DU145, BXPC-3, PANC-1 and SKOV-3 cells were seeded in 96-well plates, 10000 cells/well, and the 96-well plates were pre-incubated in an incubator at 37° C. with 5% CO2, 100% relative humidity for 24 hours, to allow the cells to adhere.
(§2) 50 μL of pre-cooled 50% (mass/volume) TCA was added into the time zero control wells for each cell strain to fix the cells. To other wells, 50 μL of various concentrations of compounds were added, and maintained for 48 h, wherein each drug concentration was in triplicate, and there were blank control wells (cell culture medium without cells), drug-free control wells (with no drugs but the same volume of complete medium) and positive drug BSI-201 control wells, and the plates were incubated in an incubator at 37° C. with 5% CO2, full humidity (100% relative humidity) for 48 hours
(§3) 50 μL pre-cooled 50% (mass/volume) TCA was added onto the surface of the culture medium to fix the cells, which was then placed at 4° C. for 1 h. The supernatant was removed and each well was washed with deionized water for 5 times to remove TCA, serum proteins, etc. After dried in the air, about 100 μL enough amount of 0.4% SRB (formulated with 1% acetic acid) was added into each well, and was placed at room temperature for 20 to 30 min. Liquid in each well was discarded and each well was rapidly washed with 1% acetic acid for five times, to remove unbound dye until the unbound dye was completely rinsed clean. After dried in the air until the moisture was invisible, each well was added 200 μL Tris base to dissolve, shaken on a plate oscillator for 5 min or mixed by beating up and down with a pipette tip, and then measured on the multi-function instruction (M5 Detection System, MD Group Ltd.) with a detection wavelength of 515 nm, zero adjusted with 690 nm blank control.
(§4) The dose-response curve was plotted by XL-fit to determine the GI50 value.

[2] = system: human lung cancer cell strain NCI-460; assay: In vitro SRB tumor cell growth inhibition (GI50); assay type: cell-based; settings: NCI-460 cells
Method: as §1, §2, §3, §4

[3] = system: human pancreatic cancer PANC-1; assay: In vitro SRB tumor cell growth inhibition (GI50); assay type: cell-based; settings: PANC-1 cells
Method: as §1, §2, §3, §4

[4] = system: human uterine cancer Hela; assay: In vitro SRB tumor cell growth inhibition (GI50); assay type: cell-based; settings: 48 h, Hela cells
Method: as §1, §2, §3, §4

[5] = system: human prostate cancer BXPC-3; assay: In vitro SRB tumor cell growth inhibition (GI50); assay type: cell-based; settings: BXPC-3 cells, 48 h
Method: as §1, §2, §3, §4

human leukemia HL-60 = assay: In vitro SRB tumor cell growth inhibition (GI50); assay type: cell-based; settings: HL-60 cells
Method: as §1, §2, §3, §4

[6] = system: human lung cancer cell strain A549; assay: In vitro SRB tumor cell growth inhibition (GI50); assay type: cell-based; settings: A549 cells, 48 h
Method: as §1, §2, §3, §4

[7] = system: human colon cancer cell strain HCT-116; assay: In vitro SRB tumor cell growth inhibition (GI50); assay type: cell-based; settings: HCT-116 cells
Method: as §1, §2, §3, §4

[8] = system: human ovarian cancer cell strain SKOV-3; assay: In vitro SRB tumor cell growth inhibition (GI50); assay type: cell-based; settings: SK-OV-3, SKOV-3 cells, 48 h
Method: as §1, §2, §3, §4

[9] = system: human lung cancer cell strain 95D; assay: In vitro SRB tumor cell growth inhibition (GI50); assay type: cell-based; settings: 48 h, 95D cells
Method: as §1, §2, §3, §4

[10] = system: human ovarian cancer cell strain HO8910; assay: In vitro SRB tumor cell growth inhibition (GI50); assay type: cell-based; settings: HO-8910, HO8910 cells, 48 h
Method: as §1, §2, §3, §4

[11] = system: human breast cancer cell strain MDA-MB435; assay: In vitro SRB tumor cell growth inhibition (GI50); assay type: cell-based; settings: Homo sapiens, MDA-MB-435, 48 h, MDA-MB435 cells
Method: as §1, §2, §3, §4

human leukemia K562 = assay: In vitro SRB tumor cell growth inhibition (GI50); assay type: cell-based; settings: K562 cells
Method: as §1, §2, §3, §4

[12] = system: human ovarian cancer cell strain OVCAR-8; assay: In vitro SRB tumor cell growth inhibition (GI50); assay type: cell-based; settings: OVCAR-8 cells
Method: as §1, §2, §3, §4

[13] = system: human ovarian cancer cell strain OVCAR-5; assay: In vitro SRB tumor cell growth inhibition (GI50); assay type: cell-based; settings: OVCAR-5 cells, 48 h
Method: as §1, §2, §3, §4

[14] = system: human prostate cancer DU145; assay: In vitro SRB tumor cell growth inhibition (GI50); assay type: cell-based; settings: DU145 cells
Method: as §1, §2, §3, §4

[15] = system: human breast cancer cell strain MCF-7; assay: In vitro SRB tumor cell growth inhibition (GI50); assay type: cell-based; settings: MCF-7 cells
Method: as §1, §2, §3, §4

human hepatoma HepG 2 = assay: In vitro SRB tumor cell growth inhibition (GI50); assay type: cell-based; settings: HepG2, HepG 2 cells, 48 h
Method: as §1, §2, §3, §4

18 tumor cell strains = assay: In vitro efficacy screening, summary over the tumor cell strains; assay type: cell-based, human; settings: in vitro screening; for inhibitory effects on tumor cell proliferation (in words): BSI-201 as positive drug
Method: as §1, §2, §3, §4

Structure (SMILES) | GI50 [1] | GI50 ([2]; Homo sapiens, NCI-460, 48 h) | GI50 ([3]; Homo sapiens, PANC-1, 48 h) | GI50 ([4]; Homo sapiens, HeLa) | GI50 [5] | GI50 (human leukemia HL-60; Homo sapiens, HL-60, 48 h) | GI50 [6] | GI50 ([7]; Homo sapiens, HCT-116, 48 h) | GI50 [8] | GI50 ([9]; Homo sapiens, 95-D) | GI50 [10] | GI50 [11] | GI50 (human leukemia K562; Homo sapiens, K562, 48 h) | GI50 ([12]; Homo sapiens, OVCAR-8, 48 h) | GI50 [13] | GI50 ([14]; Homo sapiens, DU-145, 48 h) | GI50 ([15]; Homo sapiens, MCF7, 48 h) | GI50 (human hepatoma HepG 2) | efficacy in inhibition of tumor cell proliferation, graded in words against I-1 (18 tumor cell strains) | inhibitory effects on tumor cell proliferation (in words) (18 tumor cell strains) | also measured
C#Cc1ccc(C(=O)N2CCCC2)cc1[N+](=O)[O-] [Compound I-20, (4-ethynyl-3-nitrophenyl)(pyrrolidin-1-yl)ketone] | 2.61 µM | 19.9 µM | 7.64 µM | 8.98 µM | 3.35 µM | 2.24 µM | 17.3 µM | 9.99 µM | 9.91 µM | 15.1 µM | 4.85 µM | 8.49 µM | 4.35 µM | 4.01 µM | 20.3 µM | 4.99 µM | 20.6 µM | 5.54 µM | slightly lower than that of I-1 | have inhibitory effects on tumor cell proliferation | 
C#Cc1ccc(C(=O)N2CCN(C)CC2)cc1[N+](=O)[O-] [Compound I-24, (4-ethynyl-3-nitrophenyl)(4-methylpiperazin-1-yl)ketone] | 10.9 µM | 31.1 µM | 24.3 µM | 10.1 µM | 10.2 µM | 2.47 µM | 30.1 µM | 8.62 µM | 9.77 µM | 25.8 µM | 10.2 µM | 14.5 µM | 8.03 µM |  | 35.6 µM | 6.17 µM | 21.5 µM | 7.12 µM | slightly lower than that of I-1 | have inhibitory effects on tumor cell proliferation | GI50 ([12]; 48 h): 8.92 µM
C#Cc1ccc(C(=O)NC(=O)OCC)cc1[N+](=O)[O-] [Compound I-3, N-ethoxycarbonyl-4-ethynyl-3-nitrobenzamide] | 4.32 µM | 37.3 µM | 2.48 µM | 9.9 µM | 7.5 µM | 3.2 µM | 25 µM | 5.6 µM | 15 µM | 4.38 µM | 4.03 µM | 4.16 µM | 7.03 µM | 16.3 µM |  | 3.79 µM | 6.81 µM | 12 µM | slightly lower than that of I-1 | have inhibitory effects on tumor cell proliferation | 
C#Cc1ccc(C(=O)N2CCNCC2)cc1[N+](=O)[O-] [Compound I-23, (4-ethynyl-3-nitrophenyl)(piperazin-1-yl)ketone] |  |  |  |  |  |  | 56.8 µM |  | 31.3 µM |  |  |  |  |  |  |  |  |  | slightly lower than that of I-1 | have inhibitory effects on tumor cell proliferation | GI50 ([2]; 48 h): 25.6 µM; GI50 ([3]; 48 h): 23.8 µM; GI50 [4]: 11.2 µM; GI50 (human leukemia HL-60; 48 h): 12.3 µM; GI50 ([7]; 48 h): 12.4 µM; GI50 [9]: 10.9 µM; GI50 (human leukemia K562; 48 h): 16.2 µM; GI50 ([14]; 48 h): 3.44 µM; GI50 ([15]; 48 h): 9.24 µM
CC#Cc1ccc(C(=O)NC)cc1[N+](=O)[O-] [Compound I-26, N-methyl-4-(1-propynyl)-3-nitrobenzamide] |  |  |  |  |  |  | 130 µM |  | 105 µM |  |  |  |  |  |  |  |  |  |  | have inhibitory effects on tumor cell proliferation | 
C#Cc1ccc(C(=O)N2CCNCC2)cc1[N+](=O)[O-].Cl [Compound I-30, (4-ethynyl-3-nitrophenyl)(piperazin-1-yl)ketone hydrochloride] |  | 19.5 µM | 18.1 µM | 14 µM |  | 9.27 µM |  | 10.3 µM |  | 10.9 µM |  | 3.06 µM | 15.3 µM | 10.3 µM |  | 5.84 µM | 5.97 µM |  | slightly lower than that of I-1 | have inhibitory effects on tumor cell proliferation | 
C#Cc1ccc(C(=O)NC(=O)OC)cc1[N+](=O)[O-] [Compound I-2, N-methoxycarbonyl-4-ethynyl-3-nitrobenzamide] | 7.03 µM | 33.8 µM | 13.7 µM | 7.1 µM | 7.42 µM | 2.02 µM | 8.04 µM |  | 3.81 µM | 3.62 µM | 3.44 µM | 11.7 µM | 2.8 µM | 14.1 µM | 4.24 µM | 3.31 µM | 2.08 µM | 11.3 µM | slightly lower than that of I-1 | have inhibitory effects on tumor cell proliferation | 
C#Cc1ccc(C(=O)NC(=O)OC(C)C)cc1[N+](=O)[O-] [Compound I-6, N-isopropoxycarbonyl-4-ethynyl-3-nitrobenzamide] | 9.09 µM |  |  |  |  |  |  |  |  |  |  |  | 20.2 µM |  |  |  |  |  | good effects on inhibition of tumor cell proliferation | have inhibitory effects on tumor cell proliferation | 
C#Cc1ccc(C(=O)NC(=O)OCC(C)C)cc1[N+](=O)[O-] [Compound I-7, N-isobutoxycarbonyl-4-ethynyl-3-nitrobenzamide] | 3.15 µM |  |  |  |  |  |  |  |  |  |  | 9.67 µM | 10.1 µM |  |  |  |  |  | good effects on inhibition of tumor cell proliferation | have inhibitory effects on tumor cell proliferation | 

Source: patent US8946478B2, “Benzamide derivative with anticancer activity and preparation method and use thereof” (Zhejiang Hisun Pharmaceutical Co., Ltd., priority 2010, dated 2015)
